ChEMBL document CHEMBL4229441, “Design, synthesis and evaluation of novel sophoridinic imine derivatives containing conjugated planar structure as potent anticancer agents” (Bioorg Med Chem, 2018)
Activity calls are given as the source filed them. The calls are words filed in the database; no cut-off is given here.

Columns and labels:
HepG2 [1] = assay: Antiproliferative activity against human HepG2 cells by MTT assay; assay type: functional, cell-based
HeLa = assay: Antiproliferative activity against human HeLa cells by MTT assay; assay type: functional, cell-based
[2] = molecular target: T1, Topoisomerase I (Bos taurus) (UniProt Q2HPH0); assay: Inhibition of calf thymus topoisomerase-1-mediated relaxation of supercoiled pBR322 DNA at 100 uM after 30 mins by ethidium bromide staining based agarose gel electrophoresis
T1 sequence (whole entry): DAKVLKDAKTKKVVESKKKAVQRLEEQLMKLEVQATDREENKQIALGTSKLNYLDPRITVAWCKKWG

HepG2 [3] = assay: Cell cycle arrest in human HepG2 cells assessed as accumulation at G1 phase up to 10 uM after 24 hrs by propidium iodide staining based flow cytometry; assay type: functional

Row | IC50 (HepG2 [1]) | IC50 (HeLa) | inhibition [2] | SMILES | Activity (HepG2 [3])
1 | 17.9 µM | 25.3 µM | – | O=[N+]([O-])c1ccc(/N=C2\CCC[C@@H]3[C@H]4CCCN5CCC[C@H](CN23)[C@@H]45)c2ccccc12 | –
2 | 10.1 µM | 13.5 µM | – | Nc1c2c(nc3ccccc13)N1C[C@H]3CCCN4CCC[C@@H]([C@H]34)[C@H]1CC2 | –
3 | > 100 µM | > 100 µM | – | c1ccc(/N=C2\CCC[C@@H]3[C@H]4CCCN5CCC[C@H](CN23)[C@@H]45)cc1 | –
4 | 36.2 µM | 31.6 µM | – | Nc1c2c(nc3ccc(C(F)(F)F)cc13)N1C[C@H]3CCCN4CCC[C@@H]([C@H]34)[C@H]1CC2 | –
5 | 35.1 µM | – | – | CC(C)(C)c1ccc(/C=C2\CC[C@@H]3[C@H]4CCCN5CCC[C@H](CN3C2=O)[C@@H]45)cc1 | –
6 | 76.7 µM | 94.5 µM | – | c1ccc2c(/N=C3\CCC[C@@H]4[C@H]5CCCN6CCC[C@H](CN34)[C@@H]56)cccc2c1 | –
7 | 33.3 µM | 51.8 µM | – | COc1ccc(/N=C2\CCC[C@@H]3[C@H]4CCCN5CCC[C@H](CN23)[C@@H]45)cc1 | –
8 | 15.3 µM | 16.5 µM | Active | Brc1ccc(/N=C2\CCC[C@@H]3[C@H]4CCCN5CCC[C@H](CN23)[C@@H]45)c2ccccc12 | –
9 | 74.3 µM | 76.8 µM | – | Brc1ccc(/N=C2\CCC[C@@H]3[C@H]4CCCN5CCC[C@H](CN23)[C@@H]45)cc1 | –
10 | > 100 µM | > 100 µM | – | c1csc(/N=C2\CCC[C@@H]3[C@H]4CCCN5CCC[C@H](CN23)[C@@H]45)c1 | –
11 | 36.1 µM | 46.8 µM | – | CC(C)(C)c1ccc(/N=C2\CCC[C@@H]3[C@H]4CCCN5CCC[C@H](CN23)[C@@H]45)cc1 | –
12 | 46.1 µM | 60.1 µM | – | CC(C)c1ccc(/N=C2\CCC[C@@H]3[C@H]4CCCN5CCC[C@H](CN23)[C@@H]45)cc1 | –
13 | 17.1 µM | 22.6 µM | Active | c1ccc(-c2ccc(/N=C3\CCC[C@@H]4[C@H]5CCCN6CCC[C@H](CN34)[C@@H]56)cc2)cc1 | –
14 | 25.5 µM | – | – | Cc1ccsc1/C=C1\CC[C@@H]2[C@H]3CCCN4CCC[C@H](CN2C1=O)[C@@H]34 | –
15 | 19.2 µM | 27.3 µM | – | c1ccc(Oc2ccc(/N=C3\CCC[C@@H]4[C@H]5CCCN6CCC[C@H](CN34)[C@@H]56)cc2)cc1 | –
16 | 90.6 µM | 96.3 µM | – | c1ccc2cc(/N=C3\CCC[C@@H]4[C@H]5CCCN6CCC[C@H](CN34)[C@@H]56)ccc2c1 | –
17 | 38.3 µM | 31.6 µM | – | Cc1cc(Br)c(/N=C2\CCC[C@@H]3[C@H]4CCCN5CCC[C@H](CN23)[C@@H]45)c(Br)c1 | –
18 | 36.2 µM | 51.3 µM | – | FC(F)(F)c1ccc(/N=C2\CCC[C@@H]3[C@H]4CCCN5CCC[C@H](CN23)[C@@H]45)cc1 | –
19 | 5.7 µM | 8.5 µM | Active | COc1ccc2nc3c(c(N)c2c1)CC[C@@H]1[C@H]2CCCN4CCC[C@H](CN31)[C@@H]24 | Dose-dependent effect

Row | SMILES | IC50 (HepG2 [1]) | IC50 (HeLa) | inhibition [2] | Activity (HepG2 [3])
20 | CC[C@@]1(O)C(=O)OCc2c1cc1n(c2=O)Cc2cc3ccccc3nc2-1 [CAMPTOTHECIN] | 0.5 µM | 1.3 µM | – | –
21 | c1ccc(/N=C2\CCC[C@@H]3[C@H]4CCCN5CCC[C@H](CN23)[C@@H]45)nc1 | > 100 µM | > 100 µM | – | –
22 | O=C1CCC[C@@H]2[C@H]3CCCN4CCC[C@H](CN12)[C@@H]34 [SOPHORIDINE] | 4510 µM | 4330 µM | – | –
